Experimental data from patent US8828695B2, “Method for producing butanol using two-phase extractive fermentation” (Butamax Advanced Biofuels LLC, priority 2008, dated 2014).

B1: sadB: butanol dehydrogenase from Achromobacter xylosoxidans (protein SEQ ID NO:10), expressed in E. coli Mach1/pTrc99a::sadB (protein)
chain: MKALVYHGDHKISLEDKPKPTLQKPTDVVVRVLKTTICGTDLGIYKGKNPEVADGRILGHEGVGVIEEVGESVTQFKKGDKVLISCVTSCGSCDYCKKQLYSHCRDGGWILGYMIDGVQAEYVRIPHADNSLYKIPQTIDDEIAVLLSDILPTGHEIGVQYGNVQPGDAVAIVGAGPVGMSVLLTAQFYSPSTIIVIDMDENRLQLAKELGATHTINSGTENVVEAVHRIAAEGVDVAIEAVGIPATWDICQEIVKPGAHIANVGVHGVKVDFEIQKLWIKNLTITTGLVNTNTTPMLMKVASTDKLPLKKMITHRFELAEIEHAYQVFLNGAKEKAMKIILSNAGAA
modifications: Achromobacter xylosoxidans

What was measured:
[1] = test system: Saccharomyces cerevisiae BY4741; test: Biocompatibility of solvents, shake flask studies (OD600 and glucose); format: cell-based; conditions: for Biocompatibility of the solvent (growth and glucose utilization versus control without solvent): S. cerevisiae BY4741, 25 mL solvent per 100 mL; for Glucose / OD600: 75 mL seed culture + 25 mL solvent, 30° C.
Experimental: The biocompatibility of each solvent was determined using shake flask studies with Saccharomyces cerevisiae BY4741 obtained from ATCC. Seed shake flasks containing 700 mL of yeast extract/peptone/dextrose (YPD) medium were inoculated with 200 μL of S. cerevisiae BY4741 inoculum and incubated overnight at 30° C. with shaking at 250 rpm until the OD600 reached about 0.5. Samples were withdrawn from the culture for measurement of OD600 using a spectrophotometer and glucose concentration using HPLC.
The resulting seed culture was divided into eight 125 mL flasks as follows. Into one flask, which served as a control, 100 mL of the seed culture was added. Into the remaining seven flasks, 75 mL of the seed culture and 25 mL of the solvent to be tested was added.

[2] = test system: Saccharomyces cerevisiae BY4741; test: Growth of Saccharomyces cerevisiae in the presence of isobutanol and oleyl alcohol (shake flask); format: cell-based
Experimental: The glucose consumption rate and the growth rate of wild-type Saccharomyces cerevisiae BY4741 strain were measured in shake flask cultures containing a high concentration of isobutanol in the presence of oleyl alcohol (Example 2) and the absence of oleyl alcohol (Example 3, Comparative).
Three seed shake flasks containing 600 mL of YPD medium were inoculated with 100, 300, and 1000 μL of Saccharomyces cerevisiae BY4741 inoculum, respectively. The flasks were incubated overnight at 30° C. with shaking at 250 rpm until the OD600 reached about 0.1. Samples were withdrawn from each culture and the OD600 and glucose concentration were measured as described above.
(§1) To a 125 mL flask was added 100 mL of the culture which was derived from the 300 μL inoculum (Example 3, Comparative). To another 125 mL flask was added 75 mL of the culture and 25 mL of oleyl alcohol (i.e., 25 vol %) (Example 2). The flasks were incubated at 30° C. with shaking at 100 rpm. Samples were withdrawn for OD600 and glucose measurement. When the OD600 reached about 0.4, isobutanol was added to both flasks to a final concentration of 30 g/L of the aqueous phase. A third flask containing 75 mL of the culture and 25 vol % of oleyl alcohol, but no added isobutanol, served as a positive control. Samples were withdrawn from all flasks at various times for the determination of OD600 and glucose concentration.

[3] = test system: Lactobacillus plantarum strain PN0512; test: Growth of Lactobacillus plantarum in the presence of isobutanol and oleyl alcohol (shake flask); format: cell-based
Experimental: The glucose consumption rate and the growth rate of Lactobacillus plantarum strain PN0512 were measured in shake flask cultures containing a high concentration of isobutanol in the presence of oleyl alcohol (Example 4) and the absence of oleyl alcohol (Example 5, Comparative).
Three seed shake flasks containing 50 mL of de Man-Rogosa-Sharpe (MRS) medium were inoculated with 200, 500, and 1000 μL, respectively, of Lactobacillus plantarum strain PN0512 inoculum (ATCC: PTA-7727, biological deposit made Jul. 12, 2006 for U.S. patent application Ser. No. 11/761,497). The flasks were incubated overnight at 30° C. with shaking at 250 rpm until the OD600 was between 2 and 5. A 1-L flask containing 600 mL of MRS medium was inoculated from one of the above seed flasks having an OD600=3 to an initial OD600=0.1 and cultivated at 30° C. with shaking at 180 rpm. After 4 to 5 hours of cultivation, the OD600 was between 0.5 and 1.0. Samples were withdrawn from each culture and the OD600 and glucose concentration were measured as described above.
as §1, with “culture” for “culture which was derived”, “above mentioned 1-L flask” for “300 μL inoculum”, “1.5,” for “0.4,”

[4] = Activity of the enzyme expressed from the sadB gene in cell-free extracts; format: biochemical, Achromobacter xylosoxidans; conditions: cell-free extracts of Mach1/pTrc99a::sadB, isobutyraldehyde as the standard
Experimental: The sadB coding region was then cloned into the vector pTrc99a (Amann et al., Gene 69: 301-315, 1988). The pCR4Blunt::sadB was digested with EcoRI, releasing the sadB fragment, which was ligated with EcoRI-digested pTrc99a to generate pTrc99a::sadB. This plasmid was transformed into E. coli Mach 1 cells and the resulting transformant was named Mach1/pTrc99a::sadB. The activity of the enzyme expressed from the sadB gene in these cells was determined to be 3.5 mmol/min/mg protein in cell-free extracts when analyzed using isobutyraldehyde as the standard.

[5] = isobutanol 30 g/L in the absence of oleyl alcohol
[6] = 25 vol % oleyl alcohol, isobutanol 30 g/L
[7] = Time 3 h after isobutanol addition
[8] = Time 4 h after isobutanol addition
[9] = Time 5 h after isobutanol addition
[10] = Time 14 h after isobutanol addition

Row | Molecule | Biocompatibility of the solvent (growth and glucose utilization versus control without solvent) [1] | Glucose ([1]; t = 0) [g/L] | OD600 ([1]; t = 0) | OD600 ([1]; t = 4) | Glucose ([1]; t = 2 h) [g/L] | OD600 ([1]; t = 2 h) | Glucose ([1]; t = 4 h) [g/L] | Glucose ([1]; t = 6 h) [g/L] | OD600 ([1]; t = 6 h) | Glucose ([1]; t = 24 h) [g/L] | OD600 ([1]; t = 24 h) | other results
1 | CCCCCCCCCCCCO [Solvent 1-dodecanol, 1-dodecanol] | biocompatible | 17.5 | 0.5 | 1.6 | 15.4 | 0.9 | 11.6 | 3.9 | 2.8 | 0.0 | 4.2 | 
2 | CCCCCCCCCO [nonanol, 1-nonanol] | inhibited growth and glucose utilization | 17.5 | 0.5 | 0.7 | 17.0 | 0.5 | 16.9 | 18.1 | 0.6 | 17.8 | 0.7 | 
3 | CCCCCCCCC=O [Solvent 1-nonanal, 1-nonanal] | inhibited growth and glucose utilization | 17.5 | 0.5 | 0.7 | 16.6 | 0.7 | 17.0 | 17.8 | 0.8 | 17.6 | 1.8 | 
4 | CC(C)CO [isobutanol] |  |  |  |  |  |  |  |  |  |  |  | Effect on glucose utilization and biomass growth [2, 5]: almost completely inhibited glucose utilization and biomass growth; Effect on glucose utilization and biomass growth [3, 5]: almost completely inhibited glucose utilization and biomass growth
5 | CCCCCCCC(=O)O [octanoic acid] | inhibited growth and glucose utilization | 17.5 | 0.5 | 0.8 | 17.1 | 0.9 | 17.6 | 19.2 | 0.7 | 18.5 | 1.0 | 
6 | CCCCCCCC/C=C\CCCCCCCCO [oleyl alcohol] | biocompatible | 17.5 | 0.5 | 2.0 | 15.3 | 1.0 | 10.4 | 3.4 | 2.4 | 0.0 | 3.5 | Effect of oleyl alcohol on isobutanol toxicity [2, 6]: mitigates the toxicity of isobutanol; Effect of oleyl alcohol on isobutanol toxicity [3, 6]: mitigates the toxicity of isobutanol
7 | CCCCCCCC/C=C\CCCCCCCC(=O)O [oleic acid] | biocompatible | 17.5 | 0.5 | 1.7 | 19.0 | 0.8 |  | 2.2 | 2.8 | 0.0 | 4.4 | 
8 | CCCCCCCCCCO [Solvent 1-decanol, 1-decanol] | inhibited growth and glucose utilization | 17.5 | 0.5 | 0.7 | 16.6 | 0.5 | 17.0 | 17.8 | 0.6 | 17.6 | 0.8 | 
9 | CCCCCCCC/C=C\CCCCCCCCO [Control, oleyl alcohol] |  |  |  |  |  |  |  |  |  |  |  | Glucose ([2]; Time 0 h (isobutanol addition)): 19.7 g/L; OD600 ([2]; Time 0 h (isobutanol addition)): 0.4; Glucose [2, 7]: 16.0 g/L; OD600 [2, 7]: 0.6; Glucose [2, 8]: 12.9 g/L; OD600 [2, 8]: 1.7; Glucose [2, 9]: 9.2 g/L; OD600 [2, 9]: 2.5; Glucose [2, 10]: 0.3 g/L; OD600 [2, 10]: 3.3; Glucose ([3]; Time 0 h (isobutanol addition)): 12.9 g/L; OD600 ([3]; Time 0 h (isobutanol addition)): 5.6; Glucose [3, 7]: 7.4 g/L; OD600 [3, 7]: 8.9; Glucose [3, 8]: 4.5 g/L; OD600 [3, 8]: 10.4; Glucose [3, 9]: 1.9 g/L; OD600 [3, 9]: 14.1; Glucose [3, 10]: 0 g/L; OD600 [3, 10]: 8.8
10 | CC(C)CO [Example 5, isobutanol] |  |  |  |  |  |  |  |  |  |  |  | Glucose ([3]; Time 0 h (isobutanol addition)): 12.7 g/L; OD600 ([3]; Time 0 h (isobutanol addition)): 5.7; Glucose [3, 7]: 11.7 g/L; OD600 [3, 7]: 6.8; Glucose [3, 8]: 11.7 g/L; OD600 [3, 8]: 6.9; Glucose [3, 9]: 11.7 g/L; OD600 [3, 9]: 7.2; Glucose [3, 10]: 11.6 g/L; OD600 [3, 10]: 5.3
11 | CC(C)CO [Example 3, isobutanol] |  |  |  |  |  |  |  |  |  |  |  | Glucose ([2]; Time 0 h (isobutanol addition)): 18.9 g/L; OD600 ([2]; Time 0 h (isobutanol addition)): 0.4; Glucose [2, 7]: 17.5 g/L; OD600 [2, 7]: 0.6; Glucose [2, 8]: 17.7 g/L; OD600 [2, 8]: 0.7; Glucose [2, 9]: 17.4 g/L; OD600 [2, 9]: 0.6; Glucose [2, 10]: 17.4 g/L; OD600 [2, 10]: 0.6
12 | B1 |  |  |  |  |  |  |  |  |  |  |  | activity of the enzyme expressed from the sadB gene [4]: 3.5 mmol/min/mg protein
